ChEMBL document CHEMBL3877313, “3,4-Dihydropyrimidinone-coumarin analogues as a new class of selective agent against S. aureus: Synthesis, biological evaluation and molecular modelling study” (2017)
≈ marks a conversion by molar mass, not a printed value.

Legend:
Bacillus subtilis = test: Antibacterial activity against Bacillus subtilis ATCC 23857 after 24 hrs by broth microdilution method; assay type: functional; conditions: ATCC 23857, 24 h
Staphylococcus aureus = test: Antibacterial activity against Staphylococcus aureus ATCC 12598 after 24 hrs by broth microdilution method; assay type: functional; conditions: ATCC 12598, 24 h
Pseudomonas aeruginosa = test: Antibacterial activity against Pseudomonas aeruginosa ATCC 25619 after 24 hrs by broth microdilution method; assay type: functional; conditions: ATCC 25619, 24 h
[1] = target: Matrix metalloproteinase-9 (Homo sapiens) (UniProt P14780); test: Inhibition of MMP9 in inflamed tissue isolated from chronic periodontitis patient at 500 ug/l after 15 to 30 mins by gelatin zymographic method relative to control
Escherichia coli = test: Antibacterial activity against Escherichia coli ATCC 25922 after 24 hrs by broth microdilution method; assay type: functional; conditions: ATCC 25922, 24 h
[2] = target: 72 kDa type IV collagenase (Homo sapiens) (UniProt P08253); test: Inhibition of MMP2 in inflamed tissue isolated from chronic periodontitis patient at 500 ug/l after 15 to 30 mins by gelatin zymographic method relative to control
Sequence of 72 kDa type IV collagenase (Homo sapiens) (P08253 110-660 limits assumed): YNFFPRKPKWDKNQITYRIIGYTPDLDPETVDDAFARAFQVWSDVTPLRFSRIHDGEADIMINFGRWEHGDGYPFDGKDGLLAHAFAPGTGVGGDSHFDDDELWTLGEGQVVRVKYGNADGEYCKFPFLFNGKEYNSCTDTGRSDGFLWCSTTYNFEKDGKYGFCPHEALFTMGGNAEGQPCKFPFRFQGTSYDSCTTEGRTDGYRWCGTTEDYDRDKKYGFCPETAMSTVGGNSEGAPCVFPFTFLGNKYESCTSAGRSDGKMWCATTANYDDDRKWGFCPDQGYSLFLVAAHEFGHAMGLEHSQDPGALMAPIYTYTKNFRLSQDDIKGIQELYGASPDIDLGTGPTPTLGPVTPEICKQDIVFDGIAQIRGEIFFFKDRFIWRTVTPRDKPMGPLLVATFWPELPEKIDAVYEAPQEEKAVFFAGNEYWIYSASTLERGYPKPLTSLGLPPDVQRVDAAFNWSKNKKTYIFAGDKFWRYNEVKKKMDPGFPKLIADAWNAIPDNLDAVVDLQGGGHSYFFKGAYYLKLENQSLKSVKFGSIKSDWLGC

Sequence of Matrix metalloproteinase-9 (Homo sapiens) (P14780 whole entry): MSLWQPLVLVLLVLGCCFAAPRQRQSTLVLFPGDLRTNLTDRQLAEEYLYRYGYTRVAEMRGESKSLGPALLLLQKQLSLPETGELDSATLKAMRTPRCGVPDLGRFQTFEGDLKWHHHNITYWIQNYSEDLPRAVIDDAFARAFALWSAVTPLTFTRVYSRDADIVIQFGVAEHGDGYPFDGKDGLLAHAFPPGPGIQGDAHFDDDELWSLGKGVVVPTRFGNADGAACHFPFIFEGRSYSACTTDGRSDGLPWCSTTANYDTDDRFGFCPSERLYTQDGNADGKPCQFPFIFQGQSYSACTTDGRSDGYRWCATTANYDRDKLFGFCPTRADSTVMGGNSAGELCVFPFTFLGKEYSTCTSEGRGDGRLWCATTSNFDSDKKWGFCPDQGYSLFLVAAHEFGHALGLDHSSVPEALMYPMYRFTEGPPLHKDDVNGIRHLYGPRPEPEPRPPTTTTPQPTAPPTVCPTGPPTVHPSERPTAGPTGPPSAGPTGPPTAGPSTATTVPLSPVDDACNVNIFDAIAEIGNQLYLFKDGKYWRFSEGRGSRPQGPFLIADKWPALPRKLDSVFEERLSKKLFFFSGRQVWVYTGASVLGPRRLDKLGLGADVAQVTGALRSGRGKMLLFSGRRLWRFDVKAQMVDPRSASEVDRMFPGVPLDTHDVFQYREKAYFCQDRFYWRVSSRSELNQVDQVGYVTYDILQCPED

| MIC (Bacillus subtilis) [µg/mL] | MIC (Staphylococcus aureus) [µg/mL] | MIC (Pseudomonas aeruginosa) [µg/mL] | inhibition [1] [%] | MIC (Escherichia coli) [µg/mL] | inhibition [2] [%] | Compound |
| --- | --- | --- | --- | --- | --- | --- |
| 50 (≈ 140 µM) | 6.25 (≈ 17.4 µM) | 100 (≈ 279 µM) | 30 | 25 (≈ 69.8 µM) | 80 | CCOC(=O)C1=C(C)NC(=S)NC1c1cc(=O)oc2cc(C)ccc12 (configuration not stated) |
|  |  |  | 100 |  | 100 | CN(C)[C@@H]1C(O)=C(C(N)=O)C(=O)[C@@]2(O)C(O)=C3C(=O)c4c(O)cccc4[C@@](C)(O)[C@H]3C[C@@H]12 |
| 100 (≈ 254 µM) | 0.4 (≈ 1.01 µM) | 100 (≈ 254 µM) | 95 | 0.4 (≈ 1.01 µM) | 90 | CCOC(=O)C1=C(C)NC(=S)NC1c1cc(=O)oc2c1ccc1ccccc12 (configuration not stated) |
| 50 (≈ 132 µM) | 0.8 (≈ 2.11 µM) | 100 (≈ 264 µM) |  | 0.4 (≈ 1.06 µM) | 85 | CCOC(=O)C1=C(C)NC(=S)NC1c1cc(=O)oc2ccc(Cl)cc12 (configuration not stated) |
| 100 (≈ 279 µM) | 0.4 (≈ 1.12 µM) | 100 (≈ 279 µM) |  | 1.6 (≈ 4.46 µM) | 82 | CCOC(=O)C1=C(C)NC(=S)NC1c1cc(=O)oc2ccc(C)cc12 (configuration not stated) |
| 100 (≈ 264 µM) | 0.4 (≈ 1.06 µM) | 25 (≈ 66.1 µM) | 90 | 25 (≈ 66.1 µM) | 96 | CCOC(=O)C1=C(C)NC(=O)NC1c1cc(=O)oc2c1ccc1ccccc12 (configuration not stated) |
| 50 (≈ 146 µM) | 0.2 (≈ 0.584 µM) | 100 (≈ 292 µM) | 70 | 12.5 (≈ 36.5 µM) | 95 | CCOC(=O)C1=C(C)NC(=O)NC1c1cc(=O)oc2cc(C)ccc12 (configuration not stated) |
| 50 (≈ 134 µM) | 0.8 (≈ 2.14 µM) | 100 (≈ 267 µM) | 10 | 25 (≈ 66.8 µM) | 87 | CCOC(=O)C1=C(C)NC(=S)NC1c1cc(=O)oc2ccc(OC)cc12 (configuration not stated) |
| 12.5 (≈ 36.5 µM) | 0.4 (≈ 1.17 µM) | 100 (≈ 292 µM) | 80 | 50 (≈ 146 µM) | 90 | CCOC(=O)C1=C(C)NC(=O)NC1c1cc(=O)oc2ccc(C)cc12 (configuration not stated) |
| 100 (≈ 276 µM) | 3.12 (≈ 8.6 µM) | 50 (≈ 138 µM) |  | 25 (≈ 68.9 µM) | 85 | CCOC(=O)C1=C(C)NC(=O)NC1c1cc(=O)oc2ccc(Cl)cc12 (configuration not stated) |
| 100 (≈ 279 µM) | 0.8 (≈ 2.23 µM) | 25 (≈ 69.8 µM) | 85 | 50 (≈ 140 µM) | 95 | CCOC(=O)C1=C(C)NC(=O)NC1c1cc(=O)oc2ccc(OC)cc12 (configuration not stated) |

| Compound | MIC (Bacillus subtilis) [µg/mL] | MIC (Staphylococcus aureus) [µg/mL] | MIC (Pseudomonas aeruginosa) [µg/mL] | inhibition [1] [%] | MIC (Escherichia coli) [µg/mL] | inhibition [2] [%] |
| --- | --- | --- | --- | --- | --- | --- |
| O=C(O)c1cn(C2CC2)c2cc(N3CCNCC3)c(F)cc2c1=O [CIPROFLOXACIN] | 2 (≈ 6.04 µM) | 2 (≈ 6.04 µM) | < 4 |  |  |  |
